The text below walks through data of patent US20220387365A1, “TUCARESOL DERIVATIVES AND USES THEREOF” (BeyondSpring Pharmaceuticals, Inc., priority 2019, published 2022).

For the experiment, the system named is MC38 tumor cells. Kind of experiment: Tumor volume in subcutaneous syngeneic colorectal cancer model MC38 (Example 10). It counts as in vivo,  mice. The method, then: MC38 tumor cells were maintained in vitro with DMEM medium supplemented with 10% fetal bovine serum at 37° C. in an atmosphere of 5% CO2 in air. The cells in exponential growth phase were harvested and quantitated by cell counter before tumor inoculation. Each mouse was inoculated subcutaneously in the right lower flank with 1×10^6 MC38 tumor cells in 0.1 ml of PBS for tumor development.
The randomization was started when the mean tumor size reached approximately 145 mm^3. 108 mice were enrolled in the study. All animals were randomly allocated to 9 study groups. Randomization by tumor volume was performed based on “Matched distribution” method/ “Stratified” method (StudyDirector™ software, version 3.1.399.19)/randomized block design.
Tumor volumes were measured three times a week after randomization in two dimensions using a caliper, and the volume was expressed in mm^3 using the formula: V=(L×W×W)/2, where V is tumor volume, L is tumor length (the longest tumor dimension) and W is tumor width (the longest tumor dimension perpendicular to L). Dosing as well as tumor and body weight measurements were conducted in a Laminar Flow Cabinet. The body weights and tumor volumes were measured by using StudyDirector™ software (version 3.1.399.19).
The treatment was initiated following randomization.
Tumor growth inhibition (TGI): TGI% is an indication of antitumor activity, and expressed as: TGI (%)=100×(1−T/C). T and C are the mean tumor volume (or weight) of the treated and control groups, respectively, on a given day. Statistical analysis of the difference in mean tumor volume among the groups was conducted using the method time to survival event/euthanasia. Individual mice were euthanized when tumor volume exceeded 3000mm^3. The study was ultimately terminated at Day 36.
To compare tumor volumes of different groups at a pre-specified day, Bartlett's test was used to check the assumption of homogeneity of variance across all groups. When the p-value of Bartlett's test was >=0.05, one-way ANOVA was runto test overall equality of means across all groups. If the p-value of the one-way ANOVA was <0.05, was performed post hoc testing by running Tukey's HSD (honest significant difference) tests for all pairwise comparisons, and Dunnett's tests for comparing each treatment group with the vehicle group. When the p-value of Bartlett's test was <0.05, was run Kruskal-Wallis test to test overall equality of medians among all groups. If the p-value the Kruskal-Wallis test was <0.05, was performed post hoc testing by running Conover's non-parametric test for all pairwise comparisons or for comparing each treatment group with the vehicle group, both with single-step p-value adjustment.
In addition, pairwise comparisons were performed without multiple comparison correction and reported nominal/uncorrected p-values directly from Welch's t-test or Mann-Whitney U test. Specifically, Bartlett's test was used to check the assumption of homogeneity of variance for a pair of groups. When the p-value of Bartlett's test was >0.05, Welch's t-test was run, otherwise Mann-Whitney U test was run, to obtain nominal p-values. Survival curves were compared between groups by logrank (Mantel-Cox) test.
All statistical analyses had been done in R-a language and environment for statistical computing and graphics (version 3.3.1). All tests were two-sided unless otherwise specified, and p-values of <0.05 were regarded as statistically significant.
Kaplan-Meier plot showing percent survival of mice treated with G1 to G9. A mouse whose tumor volume exceeded 3000 mm^3 was sacrificed and scored in the Kaplan-Meier plot. Tables 13.1 and 13.2 below describes the tumor growth inhibition with data collected over 24 days. Tables 14.1 and 14.2 below describes mean body weight.

On to `O=Cc1c(OCc2ccc(C(=O)O)cc2)cccc1OC1O[C@H](CO)[C@@H](O)[C@H](O)[C@H]1O` (stereo partly shown) [Compound C02], for which the “antitumor efficacy of the combination (in words)” value (20 mg/kg C02 (Group 4) against anti-PD1 alone (Group 3), FIG. 5A) is “significantly increased the antitumor efficacy of anti-PDA1 administered alone”. The “Mean Tumor Volumes” value by setting is: (Day 1) 145 ± 5.46 mm^3; (Day 4) 215.49 ± 15.14 mm^3; (Day 8) 590.08 ± 59.54 mm^3; (Day 10) 1048.2 ± 89.19 mm^3; (Day 12) 1750.55 ± 154.11 mm^3; (Day 15) 2847.19 ± 242.97 mm^3.
